{"source": "patent EP4563620A1", "about": "“THREE-ARM POLYETHYLENE GLYCOL DERIVATIVE CONTAINING AMINO ACID RESIDUES” (Xiamen Sinopeg Biotech Co., Ltd., priority 2022, dated 2024)", "key": {"[1]": {"tested_on": "H22 mouse liver cancer cells", "assay": "Anti-tumor efficacy in vivo (transplanted solid tumor, tumor weight)", "settings": "H22 subcutaneous tumor in mice, tail vein injection on days 2 and 7 post-inoculation, tumors weighed after 2 weeks of administration", "method": "The transplantation of animal tumors was adopted as the experimental method, with 6 mice per group, and H22 mouse liver cancer cells were inoculated subcutaneously into the right axilla of the mice to form solid tumors. Single-dose administrations via tail vein injection were performed on days 2 and 7 post-inoculation, respectively. After 2 weeks of administration, the mice were sacrificed via cervical dislocation, and the tumors were excised and weighed. Tumor Inhibition Rate = [G-H/G]*100% (G represents the average tumor weight of the blank control group, H represents the average tumor weight of the treatment group). Table 4. Results of Anti-tumor Effect"}, "[2]": {"tested_on": "human colon cancer cell COLO205", "assay": "Cytotoxicity assay, MTT staining", "format": "cell-based", "settings": "COLO 205, COLO205, 10 nM, 48 h", "method": "(§1) Cytotoxicity assay of PEGylated irinotecan E10-1 (wherein the polyethylene glycol component is derived from E4-1) was performed using MTT staining. A blank control group containing no drugs but only culture medium, a positive control group containing irinotecan, and an experimental group containing PEGylated irinotecan (E10-1) were respectively set up. The drug concentration of the positive control group and experimental group was 10 nM, with 6 replicate wells each, and the assay was repeated three times. Six types of cancer cells were selected as in vitro cancer cell models: human colon cancer cell COLO205, human colon adenocarcinoma cell HT29, human lung adenocarcinoma cell A549, pancreatic cancer cell MiaPaCa-2, human ovarian cancer cell A2780, and human ovarian adenocarcinoma cell OVCAR-3.\n(§2) Cells were inoculated onto a 96-well plate at a density of 1×10^4 cells/well, with 100 µL of cell suspension added to each well. After the inoculation, the cells were incubated in a cell culture incubator at 37°C, 4% CO2 for 24 h. The old culture medium was aspirated, and then 100 µL of culture medium containing 10 nM E10-1 was added to each experimental group, 100 µL of culture medium containing 10 nM irinotecan was added to each positive control group, and 100 µL of fresh culture medium was added to the blank control group. After further incubation for 48 h, 20 µL of 5 mg/mL MTT in PBS buffer was added to each well. After incubating the cancer cells with MTT for 4 h, the mixture of culture medium and MTT buffer was aspirated, and then DMSO (150 µL/well) was added to dissolve the blue-purple crystalline product of formazan in viable cells. The 96-well plate was gently shaken until the crystalline product was fully dissolved, and then a microplate reader was used to measure the absorbance at 490 nm. [formula]"}, "[3]": {"tested_on": "human ovarian cancer cell A2780", "assay": "Cytotoxicity assay, MTT staining", "format": "cell-based", "settings": "A2780, 10 nM, 48 h", "method": "as §1, §2"}, "[4]": {"tested_on": "pancreatic cancer cell MiaPaCa-2", "assay": "Cytotoxicity assay, MTT staining", "format": "cell-based", "settings": "Homo sapiens, MIA PaCa-2, MiaPaCa-2, 10 nM, 48 h", "method": "as §1, §2"}, "[5]": {"tested_on": "human lung adenocarcinoma cell A549", "assay": "Cytotoxicity assay, MTT staining", "format": "cell-based", "settings": "A549, 10 nM, 48 h", "method": "as §1, §2"}, "[6]": {"tested_on": "human colon adenocarcinoma cell HT29", "assay": "Cytotoxicity assay, MTT staining", "format": "cell-based", "settings": "HT-29, HT29, 10 nM, 48 h", "method": "as §1, §2"}, "[7]": {"tested_on": "human ovarian adenocarcinoma cell OVCAR-3", "assay": "Cytotoxicity assay, MTT staining", "format": "cell-based", "settings": "OVCAR-3, 10 nM, 48 h", "method": "as §1, §2"}}}
{"smiles": "CCc1c2c(nc3ccc(OC(=O)N4CCC(N5CCCCC5)CC4)cc13)-c1cc3c(c(=O)n1C2)COC(=O)[C@]3(O)CC", "note": "[irinotecan]", "values": [{"measurement": "Tumor Inhibition Rate", "setting": "[1]", "value": 30.3, "unit": "%"}, {"measurement": "viability at 0.01 µM", "setting": "[2]", "value": 76, "unit": "%"}, {"measurement": "viability at 0.01 µM", "setting": "[3]", "value": 73, "unit": "%"}, {"measurement": "viability at 0.01 µM", "setting": "[4]", "value": 76, "unit": "%"}, {"measurement": "viability at 0.01 µM", "setting": "[5]", "value": 70, "unit": "%"}, {"measurement": "viability at 0.01 µM", "setting": "[6]", "value": 74, "unit": "%"}, {"measurement": "viability at 0.01 µM", "setting": "[7]", "value": 75, "unit": "%"}]}
